Data from ChEMBL document CHEMBL1909294, “Translating clinical findings into knowledge in drug safety evaluation--drug induced liver injury prediction system (DILIps)” (PLoS Comput Biol, 2011).

What was measured:
Hepatotoxicity [1] = system: Hepatotoxicity;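 for HepSE Combined Scores: combined hepatic side effect score as listed in the training data of the Drug Induced Liver Injury Prediction System (DILIps)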;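 for HepSE cholecystitis: Cholecystitis-related hepatic side effect score drawn from the DILIps (drug-induced liver injury prediction) training data set; call rule not given here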;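 for HepSE cirrhosis: cirrhosis hepatic side effect score taken from the DILIps (drug-induced liver injury prediction) training set; call rule not given here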;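 for HepSE elevated liver function tests: hepatic side effect score for raised liver function tests, as recorded in the DILIps training set used for predicting drug-induced liver injury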; for HepSE hepatic failure: call rule not given here;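 for HepSE hepatitis: Hepatitis-related hepatic side effect score taken from the training data of DILIps, a prediction system for drug-induced liver injury; call rule not given here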;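 for HepSE liver function tests abnormal: hepatic side effect score taken from the DILIps (drug-induced liver injury prediction system) training data, here covering abnormal liver function test findings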
Hepatotoxicity [2] = system: Hepatotoxicity; remark: listed apart in the source;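 for HepSE Combined Scores: combined hepatic side effect score as listed in the training data of the Drug Induced Liver Injury Prediction System (DILIps)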;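 for HepSE cholecystitis: Cholecystitis-related hepatic side effect score drawn from the DILIps (drug-induced liver injury prediction) training data set; call rule not given here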;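 for HepSE cirrhosis: cirrhosis hepatic side effect score taken from the DILIps (drug-induced liver injury prediction) training set; call rule not given here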;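 for HepSE elevated liver function tests: hepatic side effect score for raised liver function tests, as recorded in the DILIps training set used for predicting drug-induced liver injury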; for HepSE hepatic failure: call rule not given here;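 for HepSE liver function tests abnormal: hepatic side effect score taken from the DILIps (drug-induced liver injury prediction system) training data, here covering abnormal liver function test findings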
Hepatotoxicity [3] = system: Hepatotoxicity; remark: listed apart in the source;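 for HepSE Combined Scores: combined hepatic side effect score as listed in the training data of the Drug Induced Liver Injury Prediction System (DILIps)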;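 for HepSE cholecystitis: Cholecystitis-related hepatic side effect score drawn from the DILIps (drug-induced liver injury prediction) training data set; call rule not given here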;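 for HepSE cirrhosis: cirrhosis hepatic side effect score taken from the DILIps (drug-induced liver injury prediction) training set; call rule not given here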;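 for HepSE elevated liver function tests: hepatic side effect score for raised liver function tests, as recorded in the DILIps training set used for predicting drug-induced liver injury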; for HepSE hepatic failure: call rule not given here;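 for HepSE liver function tests abnormal: hepatic side effect score taken from the DILIps (drug-induced liver injury prediction system) training data, here covering abnormal liver function test findings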
Hepatotoxicity [4] = system: Hepatotoxicity; remark: listed apart in the source;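 for HepSE Combined Scores: combined hepatic side effect score as listed in the training data of the Drug Induced Liver Injury Prediction System (DILIps)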;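 for HepSE cholecystitis: Cholecystitis-related hepatic side effect score drawn from the DILIps (drug-induced liver injury prediction) training data set; call rule not given here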;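 for HepSE cirrhosis: cirrhosis hepatic side effect score taken from the DILIps (drug-induced liver injury prediction) training set; call rule not given here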;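 for HepSE elevated liver function tests: hepatic side effect score for raised liver function tests, as recorded in the DILIps training set used for predicting drug-induced liver injury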; for HepSE hepatic failure: call rule not given here;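 for HepSE liver function tests abnormal: hepatic side effect score taken from the DILIps (drug-induced liver injury prediction system) training data, here covering abnormal liver function test findings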
Hepatotoxicity [5] = system: Hepatotoxicity; remark: listed apart in the source; for HepSE hepatic failure: call rule not given here
Hepatotoxicity [6] = system: Hepatotoxicity; remark: listed apart in the source; for HepSE hepatic failure: call rule not given here
Hepatotoxicity [7] = system: Hepatotoxicity; remark: listed apart in the source
Hepatotoxicity [8] = system: Hepatotoxicity; remark: listed apart in the source
Hepatotoxicity [9] = system: Hepatotoxicity; remark: listed apart in the source
Hepatotoxicity [10] = system: Hepatotoxicity; remark: listed apart in the source
Hepatotoxicity [11] = system: Hepatotoxicity; remark: listed apart in the source
Hepatotoxicity [12] = system: Hepatotoxicity; remark: listed apart in the source
Hepatotoxicity [13] = system: Hepatotoxicity; remark: listed apart in the source
Hepatotoxicity [14] = system: Hepatotoxicity; remark: listed apart in the source

| Compound | HepSE_liver function tests abnormal (Hepatotoxicity [1]) | HepSE_cholecystitis (Hepatotoxicity [2]) | HepSE_Combined Scores (Hepatotoxicity [3]) | HepSE_elevated liver function tests (Hepatotoxicity [4]) | HepSE_hepatic failure (Hepatotoxicity [5]) | HepSE_cirrhosis (Hepatotoxicity [6]) | HepSE_hepatitis (Hepatotoxicity [7]) | HepSE_liver disease (Hepatotoxicity [8]) | HepSE_liver fatty (Hepatotoxicity [9]) | HepSE_hepatic necrosis (Hepatotoxicity [10]) | HepSE_hepatomegaly (Hepatotoxicity [11]) | HepSE_cholelithiasis (Hepatotoxicity [12]) | HepSE_jaundice (Hepatotoxicity [13]) | HepSE_bilirubinemia (Hepatotoxicity [14]) | further results |
| --- | --- | --- | --- | --- | --- | --- | --- | --- | --- | --- | --- | --- | --- | --- | --- |
| CC(C)(O/N=C(\C(=O)N[C@@H]1C(=O)N2C(C(=O)[O-])=C(C[n+]3ccccc3)CS[C@H]12)c1csc(N)n1)C(=O)O [CEFTAZIDIME] | 0 | 0 | 2 | 0 | 0 | 0 | 0 | 0 | 0 | 0 | 0 | 0 | 1 | 1 | – |
| Nc1nc(/C(=C/CC(=O)O)C(=O)N[C@@H]2C(=O)N3C(C(=O)O)=CCS[C@H]23)cs1 [CEFTIBUTEN] | 0 | 0 | 1 | 0 | 0 | 0 | 0 | 0 | 0 | 0 | 0 | 0 | 1 | 0 | – |
| CO/N=C(\C(=O)N[C@@H]1C(=O)N2C(C(=O)O)=CCS[C@H]12)c1csc(N)n1 [CEFTIZOXIME] | 0 | 0 | 0 | 0 | 0 | 0 | 0 | 0 | 0 | 0 | 0 | 0 | 0 | 0 | – |
| CO/N=C(\C(=O)N[C@@H]1C(=O)N2C(C(=O)O)=C(CSc3nc(=O)c(=O)[nH]n3C)CS[C@H]12)c1csc(N)n1 [CEFTRIAXONE] | 0 | 0 | 0 | 0 | 0 | 0 | 0 | 0 | 0 | 0 | 0 | 0 | 0 | 0 | – |
| CO/N=C(\C(=O)N[C@@H]1C(=O)N2C(C(=O)O)=C(COC(N)=O)CS[C@H]12)c1ccco1 [CEFUROXIME] | 0 | 0 | 2 | 0 | 0 | 0 | 1 | 0 | 0 | 0 | 0 | 0 | 1 | 0 | – |
| Cc1ccc(-c2cc(C(F)(F)F)nn2-c2ccc(S(N)(=O)=O)cc2)cc1 [CELECOXIB] | – | – | – | – | – | – | – | – | – | – | – | – | – | – | HepSE_liver function tests abnormal (Hepatotoxicity [1]; Liver): 1; HepSE_cholecystitis (Hepatotoxicity [2]; Liver): 0; HepSE_Combined Scores (Hepatotoxicity [3]; Liver): 5; HepSE_elevated liver function tests (Hepatotoxicity [4]; Liver): 0; HepSE_hepatic failure (Hepatotoxicity [5]; Liver): 1; HepSE_cirrhosis (Hepatotoxicity [6]; Liver): 0; HepSE_hepatitis (Hepatotoxicity [7]; Liver): 1; HepSE_liver disease (Hepatotoxicity [8]; Liver): 0; HepSE_liver fatty (Hepatotoxicity [9]; Liver): 0; HepSE_hepatic necrosis (Hepatotoxicity [10]; Liver): 0; HepSE_hepatomegaly (Hepatotoxicity [11]; Liver): 0; HepSE_cholelithiasis (Hepatotoxicity [12]; Liver): 1; HepSE_jaundice (Hepatotoxicity [13]; Liver): 1; HepSE_bilirubinemia (Hepatotoxicity [14]; Liver): 0 |
| CC1=C(C(=O)O)N2C(=O)[C@@H](NC(=O)[C@H](N)C3=CCC=CC3)[C@H]2SC1 [CEPHRADINE] | 0 | 0 | 0 | 0 | 0 | 0 | 0 | 0 | 0 | 0 | 0 | 0 | 0 | 0 | – |
| COCc1c(C(C)C)nc(C(C)C)c(/C=C/[C@@H](O)C[C@@H](O)CC(=O)O)c1-c1ccc(F)cc1 [CERIVASTATIN] | 0 | 0 | 4 | 0 | 0 | 1 | 1 | 0 | 0 | 1 | 0 | 0 | 1 | 0 | – |
| O=C(O)CCCc1ccc(N(CCCl)CCCl)cc1 [CHLORAMBUCIL] | 0 | 0 | 1 | 0 | 0 | 0 | 0 | 0 | 0 | 0 | 0 | 0 | 1 | 0 | – |
| O=C(N[C@H](CO)[C@H](O)c1ccc([N+](=O)[O-])cc1)C(Cl)Cl [CHLORAMPHENICOL] | 0 | 0 | 0 | 0 | 0 | 0 | 0 | 0 | 0 | 0 | 0 | 0 | 0 | 0 | – |
| CNC1=Nc2ccc(Cl)cc2C(c2ccccc2)=[N+]([O-])C1 [CHLORDIAZEPOXIDE] | 0 | 0 | 1 | 0 | 0 | 0 | 0 | 0 | 0 | 0 | 0 | 0 | 1 | 0 | – |
| [H]/N=C(\N/C(=N/[H])NCCCCCCNC(=N)NC(=N)Nc1ccc(Cl)cc1)Nc1ccc(Cl)cc1 [CHLORHEXIDINE] | 0 | 0 | 0 | 0 | 0 | 0 | 0 | 0 | 0 | 0 | 0 | 0 | 0 | 0 | – |
| CCN(CC)CCOC(=O)c1ccc(N)cc1Cl [CHLOROPROCAINE] | 0 | 0 | 0 | 0 | 0 | 0 | 0 | 0 | 0 | 0 | 0 | 0 | 0 | 0 | – |
| CCN(CC)CCCC(C)Nc1ccnc2cc(Cl)ccc12 (stereo not drawn) [CHLOROQUINE] | 0 | 0 | 0 | 0 | 0 | 0 | 0 | 0 | 0 | 0 | 0 | 0 | 0 | 0 | – |
| NS(=O)(=O)c1cc2c(cc1Cl)N=CNS2(=O)=O [CHLOROTHIAZIDE] | 0 | 0 | 1 | 0 | 0 | 0 | 0 | 0 | 0 | 0 | 0 | 0 | 1 | 0 | – |
| CN(C)CCC(c1ccc(Cl)cc1)c1ccccn1 (stereo not drawn) [CHLORPHENIRAMINE] | 0 | 0 | 0 | 0 | 0 | 0 | 0 | 0 | 0 | 0 | 0 | 0 | 0 | 0 | – |
| CN(C)CCCN1c2ccccc2Sc2ccc(Cl)cc21 [CHLORPROMAZINE] | 0 | 0 | 3 | 0 | 0 | 1 | 0 | 1 | 0 | 0 | 0 | 0 | 1 | 0 | – |
